# Measurements from US20070036871A1, “TECHNIQUE FOR TREATMENT AND PREVENTION OF FUNGAL DISEASES IN GROWING GRAPES BY APPLICATION OF A SODIUM CHLORITE, UREA SULFURIC ACID SOLUTION” (priority 2005, published 2007).
# Where “and” joins values, the source holds several entries; their conditions need not be identical. Identical values can stand only once.
# Tested on: powdery mildew
# Experiment: Field trials of foliar fungicide treatments on Carignane grape vines against powdery mildew (Example IV)
# Assay type: in vivo
# [1] = individual plot data, rated July 3 after June 22 treatment
# [2] = individual plot data, rated July 12 after July 3 treatment
# [3] = individual plot data, rated June 22 after June 12 treatment
# [4] = rated July 3 after June 22 treatment (10 days after second treatment), average of plots
# [5] = rated July 12 after July 3 treatment (10 days after third treatment), average of plots
# [6] = rated June 22 after June 12 treatment (10 days after first treatment), average of plots
structure (smiles),measurement,setting,value
"[S] [4-6 lb/acre sulphur, sulphur]",% fruit w/ symptoms,[1],20% and 40% and 15% and 5%
same,% leaves w/ symptoms,[1],10% and 20% and 2% and 8%
same,% severity of infected fruit,[1],15% and 30% and 10% and 5%
same,% severity of infected leaves,[1],15% and 20% and 4% and 5%
same,% fruit w/ symptoms,[2],10% and 60% and 40% and 20%
same,% leaves w/ symptoms,[2],2% (3×) and 15%
same,% severity of infected fruit,[2],10% (2×) and 40% and 25%
same,% severity of infected leaves,[2],5% (3×) and 2%
same,% fruit w/ symptoms,[3],30% and 40% and 20% and 15%
same,% leaves w/ symptoms,[3],2% (2×) and 20% and 5%
same,% severity of infected fruit,[3],8% and 30% and 6% and 20%
same,% severity of infected leaves,[3],2% (2×) and 18% and 5%
same,% fruit w/ symptoms,[4],20%
same,% leaves w/ symptoms,[4],10%
same,% severity of infected fruit,[4],15%
same,% severity of infected leaves,[4],11% and 20%
same,% fruit w/ symptoms,[5],32.5%
same,% leaves w/ symptoms,[5],5.25%
same,% severity of infected fruit,[5],21.25%
same,% severity of infected leaves,[5],4.25%
same,% fruit w/ symptoms,[6],26.25%
same,% leaves w/ symptoms,[6],7.25%
same,% severity of infected fruit,[6],16%
same,% severity of infected leaves,[6],6.75%
same,fungal disease control (in words),ten days after the third treatment,substantially lower disease infection in leaves over the low rate NaClO2+US acid treatment
